Assays:
Format in all cases: biochemical
MMP-16 = target: T1, MMP-16 (Homo sapiens, UniProt P51512); assay: In vitro MMP-16 inhibition test
T1 construct: purchased R&D Systems 1785-MP
Description: (§1) The MMP-mediated amidolytic cleavage of a suitable peptide substrate leads to an increase in fluorescent light here too. The signal intensity of the fluorescent light is directly proportional to the enzyme activity. The active concentration of a test compound at which half the enzyme is inhibited (50% signal intensity of the fluorescent light) is reported as the IC50 value.
Recombinant MMP-16 (from R&D Systems, 1785-MP) is enzymatically activated in accordance with the manufacturer's instructions using recombinant furin (from R&D Systems, 1503-SE). 1 μl of the test compound to be analysed (as a solution in DMSO, suitable concentrations e.g. 1 nM to 30 μM) is pipetted into 24 μl of activated enzyme (final concentration e.g. 1 nM) in reaction buffer (50 mM Tris/HCl pH 7.5, 10 mM CaCl2, 150 mM NaCl, 0.05% Brij®-35) in a white 384-hole microtiter plate (MTP). The enzymatic reaction is started by adding the intramolecularly quenched Mca-Lys-Pro-Leu-Gly-Leu-Dpa(Dnp)-Ala-Arg-NH2 substrate (final concentration, for example, 5 μM; R&D Systems, ES-010), so as to result in a total test volume of 50 The course of the MMP-16 reaction is measured by measuring the fluorescence intensity (excitation 320 nm, emission 410 nm) over a suitable period of time (for example over 120 min at a temperature of 32° C.).

MMP-1 = target: T2, MMP-1 (Homo sapiens, UniProt P03956); assay: In vitro MMP-1 inhibition test
T2 construct: purchased R&D Systems 901-MP
T2 sequence (P03956 100-469): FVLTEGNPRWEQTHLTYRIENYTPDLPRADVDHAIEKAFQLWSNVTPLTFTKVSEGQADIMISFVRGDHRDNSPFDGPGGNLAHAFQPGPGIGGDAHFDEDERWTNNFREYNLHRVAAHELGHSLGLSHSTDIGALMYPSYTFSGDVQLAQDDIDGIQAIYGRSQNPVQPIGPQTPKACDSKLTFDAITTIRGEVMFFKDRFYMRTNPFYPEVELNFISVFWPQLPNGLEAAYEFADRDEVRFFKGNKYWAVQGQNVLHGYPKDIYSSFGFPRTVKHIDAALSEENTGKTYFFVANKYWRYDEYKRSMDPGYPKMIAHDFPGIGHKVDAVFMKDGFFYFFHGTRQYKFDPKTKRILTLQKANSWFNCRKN
Description: as §1
(§2) Recombinant MMP-1 (from R&D Systems, 901-MP) is chemically activated in accordance with the manufacturer's instructions using APMA. 1 μl of the test compound to be analysed (as a solution in DMSO, suitable concentrations, for example, 1 nM to 30 μM) is pipetted into 24 μl of activated enzyme (final concentration, for example, 2 nM) in reaction buffer (50 mM Tris/HCl pH 7.5, 10 mM CaCl2, 150 mM NaCl, 0.05% Brij®-35) in a white 384-hole microtiter plate (MTP). The enzymatic reaction is started by adding the intramolecularly quenched Mca-Pro-Leu-Gly-Leu-Dpa(Dnp)-Ala-Arg-NH2 substrate (final concentration, for example, 10 μM; R&D Systems, ES-001), so as to result in a total test volume of 50 μl. The course of the MMP-1 reaction is measured by measuring the fluorescence intensity (excitation 320 nm, emission 410 nm) over a suitable period of time (for example over 120 min at a temperature of 32° C.).

MMP-2 = target: T3, MMP-2 (Homo sapiens, UniProt P08253); assay: In vitro MMP-2 inhibition test
T3 construct: purchased R&D Systems 902-MP
T3 sequence (P08253 110-660): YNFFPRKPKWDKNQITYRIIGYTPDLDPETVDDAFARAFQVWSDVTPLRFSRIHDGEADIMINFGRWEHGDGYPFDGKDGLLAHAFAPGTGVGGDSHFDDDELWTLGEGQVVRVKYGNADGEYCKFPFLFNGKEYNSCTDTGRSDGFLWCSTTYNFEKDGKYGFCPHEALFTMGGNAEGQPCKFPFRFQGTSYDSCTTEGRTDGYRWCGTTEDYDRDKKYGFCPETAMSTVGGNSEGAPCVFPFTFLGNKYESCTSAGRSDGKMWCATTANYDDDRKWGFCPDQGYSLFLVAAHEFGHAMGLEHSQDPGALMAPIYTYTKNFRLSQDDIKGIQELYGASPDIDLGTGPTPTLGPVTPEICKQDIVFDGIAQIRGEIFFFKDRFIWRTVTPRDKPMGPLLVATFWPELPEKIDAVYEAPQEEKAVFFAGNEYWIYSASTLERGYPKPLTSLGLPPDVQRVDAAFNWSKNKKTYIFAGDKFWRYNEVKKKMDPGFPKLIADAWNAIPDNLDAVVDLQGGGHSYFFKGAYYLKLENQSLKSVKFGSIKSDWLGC
Description: as §1
as §2, with “MMP-2” for “MMP-1”, “902-MP)” for “901-MP)”

T1 sequence (P51512 120-564 limits assumed): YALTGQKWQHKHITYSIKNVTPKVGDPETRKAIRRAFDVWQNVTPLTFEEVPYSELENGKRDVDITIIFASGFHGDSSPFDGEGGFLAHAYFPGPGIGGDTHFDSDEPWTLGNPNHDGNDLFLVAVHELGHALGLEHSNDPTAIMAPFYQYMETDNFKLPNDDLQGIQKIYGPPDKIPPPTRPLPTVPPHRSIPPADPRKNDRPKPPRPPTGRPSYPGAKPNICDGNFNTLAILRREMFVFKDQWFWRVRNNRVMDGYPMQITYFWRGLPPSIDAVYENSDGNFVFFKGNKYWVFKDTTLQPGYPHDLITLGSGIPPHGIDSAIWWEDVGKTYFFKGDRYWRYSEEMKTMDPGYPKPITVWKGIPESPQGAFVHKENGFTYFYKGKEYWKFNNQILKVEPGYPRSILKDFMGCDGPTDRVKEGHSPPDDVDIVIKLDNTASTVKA

IC50 (MMP-16)	IC50 (MMP-1)	IC50 (MMP-2)	Structure (SMILES)
270 nM	3100 nM	97 nM	O=C(O)[C@@H]1[C@@H](Cn2nnc3ccc(C(F)(F)F)cc3c2=O)CC[C@H]1C(=O)c1ccc(OCC2CCCCC2)cc1 (single isomer, unassigned) [Example 41, (+)-(1RS,2RS,5SR)-2-[4-(Cyclohexylmethoxy)benzoyl]-5-{[4-oxo-6-(trifluoromethyl)-1,2,3-benzotriazin-3(4H)-yl]methyl}cyclopentanecarboxylic acid]
100 nM	3600 nM	270 nM	O=C(O)[C@@H]1[C@@H](Cn2nnc3ccc(C(F)(F)F)cc3c2=O)CC[C@H]1C(=O)c1ccc(OCC2CCCC2)cc1 (single isomer, unassigned) [Example 44, (+)-(1RS,2RS,5SR)-2-[4-(Cyclopentylmethoxy)benzoyl]-5-{[4-oxo-6-(trifluoromethyl)-1,2,3-benzotriazin-3(4H)-yl]methyl}cyclopentanecarboxylic acid]
4600 nM	6300 nM	1600 nM	O=C(O)[C@@H]1[C@@H](Cn2nnc3ccc(C(F)(F)F)cc3c2=O)CC[C@H]1C(=O)c1ccc(OCCC2CCCCC2)cc1 (single isomer, unassigned) [Example 52, (+)-(1RS,2RS,5SR)-2-[4-(2-Cyclohexylethoxy)benzoyl]-5-{[4-oxo-6-(trifluoromethyl)-1,2,3-benzotriazin-3(4H)-yl]methyl}cyclopentanecarboxylic acid]
5100 nM	15000 nM	1300 nM	O=C(O)[C@@H]1[C@@H](Cn2nnc3ccc(C(F)(F)F)cc3c2=O)CC[C@H]1C(=O)c1ccc(OCCC2CCCC2)cc1 (single isomer, unassigned) [Example 55, (+)-(1RS,2RS,5SR)-2-[4-(2-Cyclopentylethoxy)benzoyl]-5-{[4-oxo-6-(trifluoromethyl)-1,2,3-benzotriazin-3(4H)-yl]methyl}cyclopentanecarboxylic acid]
2300 nM	8400 nM	580 nM	CCCCCCOc1ccc(C(=O)[C@@H]2CC[C@H](Cn3nnc4ccc(C(F)(F)F)cc4c3=O)[C@H]2C(=O)O)cc1 (single isomer, unassigned) [Example 58, (+)-(1RS,2RS,5SR)-2-[4-(Hexyloxy)benzoyl]-5-{[4-oxo-6-(trifluoromethyl)-1,2,3-benzotriazin-3(4H)-yl]methyl}cyclopentanecarboxylic acid]
3600 nM	21000 nM	4200 nM	O=C(O)[C@@H]1[C@@H](Cn2nnc3ccc(C(F)(F)F)cc3c2=O)CC[C@H]1C(=O)c1ccc(SCc2ccccc2)cc1 (single isomer, unassigned) [Example 75, (+)-(1RS,2RS,5SR)-2-[4-(Benzylsulphanyl)benzoyl]-5-{[4-oxo-6-(trifluoromethyl)-1,2,3-benzotriazin-3(4H)-yl]methyl}cyclopentanecarboxylic acid]
3800 nM	2900 nM	970 nM	O=C(O)[C@@H]1[C@@H](Cn2nnc3ccc(C(F)(F)F)cc3c2=O)CC[C@H]1C(=O)c1ccc(SCc2cccc(Cl)c2)cc1 (single isomer, unassigned) [Example 77, (+)-(1RS,2RS,5SR)-2-{4-[(3-Chlorobenzyl)sulphanyl]benzoyl}-5-{[4-oxo-6-(trifluoromethyl)-1,2,3-benzotriazin-3(4H)-yl]methyl}cyclopentanecarboxylic acid]
5500 nM	2500 nM	1400 nM	O=C(O)[C@@H]1[C@@H](Cn2nnc3ccc(C(F)(F)F)cc3c2=O)CC[C@H]1C(=O)c1ccc(SCc2ccc(Cl)c(Cl)c2)cc1 (single isomer, unassigned) [Example 80, (+)-(1RS,2RS,5SR)-2-{4-[(3,4-Dichlorobenzyl)sulphanyl]benzoyl}-5-{[4-oxo-6-(trifluoromethyl)-1,2,3-benzotriazin-3(4H)-yl]methyl}cyclopentanecarboxylic acid]
110 nM	3100 nM	47 nM	Cc1ccc2nnn(C[C@H]3CC[C@@H](C(=O)c4ccc(OCc5ccccc5)cc4)[C@@H]3C(=O)O)c(=O)c2c1 (single isomer, unassigned) [Example 92, (+)-(1RS,2RS,5SR)-2-[4-(Benzyloxy)benzoyl]-5-[(6-methyl-4-oxo-1,2,3-benzotriazin-3(4H)-yl)methyl]cyclopentanecarboxylic acid]
670 nM	9600 nM	440 nM	Cc1cccc(COc2ccc(C(=O)[C@@H]3CC[C@H](Cn4nnc5ccc(C)cc5c4=O)[C@H]3C(=O)O)cc2)c1 (single isomer, unassigned) [Example 98, (+)-(1RS,2RS,5SR)-2-{4-[(3-Methylbenzyl)oxy]benzoyl}-5-[(6-methyl-4-oxo-1,2,3-benzotriazin-3(4H)-yl)methyl]cyclopentanecarboxylic acid]
880 nM	14000 nM	380 nM	Cc1ccc2nnn(C[C@H]3CC[C@@H](C(=O)c4ccc(OCc5cccc(C(F)(F)F)c5)cc4)[C@@H]3C(=O)O)c(=O)c2c1 (single isomer, unassigned) [Example 101, (+)-(1RS,2SR,5RS)-2-[(6-Methyl-4-oxo-1,2,3-benzotriazin-3(4H)-yl)methyl]-5-(4-{[3-(trifluoromethyl)benzyl]oxy}benzoyl)cyclopentanecarboxylic acid]
540 nM	3900 nM	220 nM	Cc1ccc2nnn(C[C@H]3CC[C@@H](C(=O)c4ccc(OCc5cccc(Cl)c5)cc4)[C@@H]3C(=O)O)c(=O)c2c1 (single isomer, unassigned) [Example 104, (+)-(1RS,2RS,5SR)-2-{4-[(3-Chlorobenzyl)oxy]benzoyl}-5-[(6-methyl-4-oxo-1,2,3-benzotriazin-3(4H)-yl)methyl]cyclopentanecarboxylic acid]

Structure (SMILES)	IC50 (MMP-16)	IC50 (MMP-1)	IC50 (MMP-2)
CCCCOc1ccc(C(=O)[C@@H]2CC[C@H](Cn3nnc4ccc(C(F)(F)F)cc4c3=O)[C@H]2C(=O)O)cc1 (single isomer, unassigned) [Example 67, (+)-(1RS,2RS,5SR)-2-(4-Butoxybenzoyl)-5-{[4-oxo-6-(trifluoromethyl)-1,2,3-benzotriazin-3(4H)-yl]methyl}cyclopentanecarboxylic acid]	180 nM	5200 nM	270 nM
